Measurements from patent publication US20050027015A1 (priority 2001, published 2005).

Key:
[1] = exposed to air or at an elevated temperature; cited from earlier work
animals = settings: ingesting cysteamine directly; cited from earlier work
somatostain (SS) = settings: pigs, poultry, fowls, goats, rabbits and fish; cited from earlier work
black & white dairy cows = test: Experiment 3: three-stage feeding trial, black & white dairy cows; format: in vivo; settings: control group, 40 g per cow every other day, versus 20 g daily (2.89 vs 2.73 wt %)
Source text: Thirty-two black & white dairy cows were used in the experiment and were randomly divided into four groups, namely test Groups I to III, and a control group. Each group had eight cows. […] There were three stages in the experiment. In the first stage of the experiment, the feed for the test Groups I to III of cows was mixed with the composition such that each cow in the three test groups was fed with 20 g, 30 g and 40 g of the composition respectively daily. No cysteamine-containing composition was mixed in the feed for the control group of cows. The first stage of the experiment lasted for thirty-seven days and was preceded by a three-day adaptation period. During the second stage of the experiment, the composition was not added to the feed for the three test groups of cows. However, each cow in the control group was fed with 20 g of the composition daily via its feed. The second stage of the experiment lasted for seven days. During the third stage of the experiment, the three test groups of cows were fed with the feed mixed with the composition such that 20 g of the composition was taken by each cow daily. Each cow in the control group was fed with 40 g of the composition every other day via the feed. The third stage of the experiment lasted for seven days. The daily milk yield, milk fat content, milk protein content and somatic cells in milk were measured and recorded. […]

In the case of `NCCS` [cysteamine], the oxidation [1] is given as “readily oxidized”, the gastro side effects (animals) is given as “will cause undesirable gastro side effects” and the “effect on somatostain (SS)” value (somatostain (SS)) is given as “can deplete somatostain (SS)”. The “increase of milk protein content” value (black & white dairy cows) was 5.86%.
